Legend:
LRP6 in the normal GI = test: PD analysis of normal GI tissues (Western blot); format: in vivo, mouse
[1] = system: EGFR overexpressing triple negative breast cancer cells; test: Apoptosis (Annexin V / 7AAD, cleaved PARP) in triple negative breast cancer cells; format: cell-based
Method: The Grp94 inhibitors of the disclosure can be used to treat patients with EGFR overexpressing triple negative breast cancer. As shown in FIGS. 13a-c, EGFR overexpressing triple negative breast cancer cells are sensitive to the selective Grp94 inhibitor PU-WS13. The sensitivity of the EGFR overexpressing triple negative breast cancer cells was tested for the presence of apoptotic cells by Annexin V staining (13a, 13b) and by immunoblotting for the presence of cleaved PARP (13c). […] The Grp94 inhibitors of the disclosure can be used to treat patients with EGFR overexpressing pancreatic cancer. […]
Cell fractionation and immunoblotting. […] Protein concentrations were determined using BCA kit (Pierce) according to the manufacturer's instructions. […]
Cell cycle and apoptosis assessment. Cell cycle and apoptosis were assessed by flow cytometry after single staining with propidium iodide (PI, BD Pharmingen) or double staining with AnnexinV-FITC (BD Pharmingen) and 7AAD (BD Pharmingen), respectively. […] DNA content was measured by BD LSRII flow cytometer and cell further analyzed using program of cell cycle analysis in FloJo (Ashland, OR). […] Signals from FL1 and FL3 channels were collected by MACSQuant analyzer and further analyzed using FloJo. […]

NCI-N87 cells = test: Cell viability assessment (CellTiter-Glo); format: cell-based
Capan-2 cells = test: Cell viability assessment (CellTiter-Glo); format: cell-based
[2] = system: IGF-II secretion by differentiated C2C12 cells; test: C2C12 differentiation and IGF-II secretion assay; format: cell-based, mouse; details: 24 hrs treatment
From the text: C2C12 differentiation and IGF-II secretion assay (Wanderling, S. et al. GRP94 is essential for mesoderm induction and muscle development because it regulates insulin-like growth factor secretion. Mol. Biol. Cell 18, 3764-75 (2007); Ostrovsky, O., Ahmed, N.T. & Argon, Y. The chaperone activity of GRP94 toward insulin-like growth factor II is necessary for the stress response to serum deprivation. Mol. Biol. Cell 20, 1855-64 (2009)). C2C12 cells were maintained and cultured in DMEM in the presence of 10% FBS and 1% penicillin/streptomycin (Culture medium). C2C12 is an immortal line of mouse skeletal myoblasts originally derived from satellite cells from the thigh muscle of a two month old female mouse donor. These cells differentiate well into myocytes under appropriate culture conditions. […] Secreted IGF-II was quantified by using IGF-II mouse ELISA kit (Abcam, AB100696) according to the manufacturer's instructions. […] The bound IGF-II was detected with a biotinylated anti-IGF-II antibody. After the sequential incubation with HRP conjugated streptavidin, TMB One-step substrate reagent and the Stop solution, the absorbance was measured at 450 nm. The secreted IGF-II was quantified against a standard curve generated with recombinant IGF-II provided by the kit.

SMILES: CC(C)NCCCn1c(Sc2cc(Cl)cc(Cl)c2)nc2c(N)ncnc21 [PU-WS13]
- LRP6 levels in normal GI (LRP6 in the normal GI; 75 mg/kg): could not detect a significant decrease in LRP6
- LRP6 levels in normal GI (LRP6 in the normal GI; 150 mg/kg): no acute tox or change in LRP6 levels
- sensitivity (apoptosis, cleaved PARP) [1]: sensitive
- sensitivity to Grp94 inhibition (NCI-N87 cells): highly susceptible
- effect on cell growth (Capan-2 cells): no effect
- IGF-II secretion [2]: inhibited IGF-II secretion
